US20260028352A1, “MACROCYCLIC IMIDAZO [1,2-B] PYRIDAZINE DERIVATIVE, PREPARATION METHOD THEREFOR, AND USE THEREOF” (SUZHOU LANGRUI BIOPHARMACEUTICAL CO., LTD., priority 2022, published 2026)

Assays:
[1] = test system: Ba/F3-TPM3-NTRK1-WT cells; assay: Growth inhibition of Ba/F3-TPM3-NTRK1-WT cells (Cell Titer-Glo); format: cell-based; details: 72 hours, CTG; read-out: inhibitory activity IC50 Ba/F3-TPM3-NTRK1-WT
Method: (§1) Then the solutions were subjected to a gradient dilution with DMSO: a clean, sterile V-bottom 96-well microplate was placed in the biological safety cabinet. First, 4 μL of DMSO was added to well B2 and 10 μL of DMSO was added to wells B3-B11 respectively; Next, 6 μL of the 10 mM solution was added to well B2. The microplate was pipetted up and down 10 times for mixing. […] Mixing was performed by pipetting up and down 10 times. The solution was diluted in order until well B10. only DMSO was added to well B11 (no compound).
(§2) 6× Compound Solution Preparation (6-fold dilution, × represents dilution factor): (Initial final concentration: 10 μM), a clean, sterile V-bottom 96-well microplate was placed in the biological safety cabinet. 99 μL of cell culture medium was added to each well from B2 to G11. By using a 12-channel pipettor, 1 μL of the compound solution prepared in the previous step was added into the corresponding wells. The solutions were pipetted up and down 10 times to mix the solutions. The highest concentration of compound in this step was 60 μM.
(§3) Treatment of Cells: the above-prepared cell culture plate was taken out of the incubator. 20 μL of compound solution from each well was added to the corresponding cell culture wells. The lowest pipetting speed was used and touching the bottom of the plate was avoided. The culture plate was gently shaked to mix the compound solution, then the plate was returned to the incubator for further culture for 72 hours.
(§4) The highest treatment concentration of the compound was 10 μM. After 72 hours of treatment, the Cell Titer-Glo (CTG) assay was performed. First, the cell culture plate was removed from the CO2 incubator and allowed to stand at room temperature for 30 minutes to ensure uniform temperature of the plate. The pre-prepared Cell Titer-Glo reagent (following the manufacturer's instructions) was taken and allowed to stand at room temperature to thaw. 60 μL of Cell Titer-Glo reagent was added to each well containing cells. The cells were incubated on a horizontal shaker in a dark place at 225 rpm for 1 hour at room temperature. Then, a Tecan Spark microplate reader was used to read the plate using chemiluminescence according to the manufacturer's instructions.

[2] = test system: Ba/F3-TPM3-NTRK1-G595R cells; assay: Growth inhibition of Ba/F3-TPM3-NTRK1-G595R cells (Cell Titer-Glo); format: cell-based; details: 72 hours, CTG; read-out: inhibitory activity IC50 Ba/F3-TPM3-NTRK1-G595R
Method: as §1, §2, §3, §4

[3] = test system: Ba/F3-TPM3-NTRK1-G667C cells; assay: Growth inhibition of Ba/F3-TPM3-NTRK1-G667C cells (Cell Titer-Glo); format: cell-based; details: 72 hours, CTG; read-out: inhibitory activity IC50 Ba/F3-TPM3-NTRK1-G667C
Method: as §1, §2, §3, §4

TRKA^WT kinase = TRKA^WT kinase (Homo sapiens (Human), UniProt P04629); assay: Inhibitory activity against TRKA WT kinase (Caliper mobility shift); format: biochemical; details: in vitro kinase assay
Chain of TRKA^WT kinase (P04629 33-796): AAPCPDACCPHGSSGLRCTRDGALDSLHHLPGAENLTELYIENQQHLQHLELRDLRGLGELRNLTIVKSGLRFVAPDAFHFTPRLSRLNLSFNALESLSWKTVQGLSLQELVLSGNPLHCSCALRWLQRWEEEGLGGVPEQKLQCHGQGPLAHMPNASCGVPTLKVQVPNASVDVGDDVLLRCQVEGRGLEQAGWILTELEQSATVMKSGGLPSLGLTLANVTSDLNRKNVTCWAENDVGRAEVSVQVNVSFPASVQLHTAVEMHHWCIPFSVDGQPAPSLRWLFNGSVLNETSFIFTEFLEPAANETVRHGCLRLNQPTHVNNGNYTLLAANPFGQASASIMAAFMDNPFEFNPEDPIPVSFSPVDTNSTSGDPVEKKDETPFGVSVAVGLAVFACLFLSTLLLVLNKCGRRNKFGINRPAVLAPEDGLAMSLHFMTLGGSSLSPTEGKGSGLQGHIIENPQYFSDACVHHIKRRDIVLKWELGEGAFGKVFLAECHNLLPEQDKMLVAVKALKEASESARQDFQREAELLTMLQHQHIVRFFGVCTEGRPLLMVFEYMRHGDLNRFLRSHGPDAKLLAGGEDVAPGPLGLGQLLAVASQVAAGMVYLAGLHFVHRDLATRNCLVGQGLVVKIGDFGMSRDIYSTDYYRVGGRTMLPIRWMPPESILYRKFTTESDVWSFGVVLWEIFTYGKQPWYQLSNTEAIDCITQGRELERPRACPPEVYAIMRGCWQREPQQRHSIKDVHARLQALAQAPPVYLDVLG
Method: Kinase Assay Process: 1× Kinase buffer was prepared. […] The compounds were serially diluted into 10 concentrations ([…], 0.15, and 0.05 nM) using a Precision 3-fold dilution method. By using the Echo550 liquid handler, 250 nL of the 100-fold final concentration compound was transferred to an OptiPlate-384F plate. a 2.5× final concentration kinase solution was prepared using 1× Kinase buffer. 10 μL of the 2.5× final concentration kinase solution was added to the compound wells and the positive control wells, and 10 μL of 1× Kinase buffer was added to the negative control wells. The plate was centrifuged at 1000 rpm for 30 seconds, vortexed for mixing, and then incubated at room temperature for 10 minutes. A mixture of 5/3× final concentration of ATP and Kinase Substrate 22 was prepared using 1× Kinase buffer. 15 μL of the mixture of the 5/3× final concentration ATP and the substrate was added to initiate the reaction, the 384-well plate was centrifuged at 1000 rpm for 30 seconds, vortexed for mixing, and incubated at room temperature for the required time. 30 μL of the termination solution was added to stop the kinase reaction, the plate was centrifuged at 1000 rpm for 30 seconds, and vortexed for mixing. The conversion rate was measured using the Caliper EZ Reader.
Data Analysis: the inhibition rate was calculated as follows:
% Inhibition=(Conversion %_max−conversion %_sample)÷(Conversion %_max−conversion %_min)×100
Conversion %_sample is the conversion rate reading for the sample; Conversion %_min is the average value of the negative control wells, representing the conversion rate for wells without enzyme activity: Conversion %_max is the average value of the positive control wells, representing the conversion rate for wells without compound inhibition. A dose-response curve was fitted using the log concentration of the compound as the X-axis and the percentage inhibition as the Y-axis. The log(inhibitor) vs. response-variable slope of the GraphPad Prism 5 software was used to fit the dose-response curve, and the IC50 value for each compound was obtained. The calculation formula is:
Y=Bottom+(Top−Bottom)/(1+10^((Log IC50−X)*HillSlope)).
wherein X represents the concentration of the compound to be tested; Y represents the inhibition rate at the concentration X: Top refers to the maximum response: Bottom refers to the baseline response; HillSlope refers to the slope of the curve (i.e., the gradient).

Compound | IC50 [1] | IC50 [2] | IC50 [3] | IC50 (TRKA^WT kinase)
CC1Nc2ccc3ncc(n3n2)-c2cc(ccn2)CCOc2ccccc21 (stereo not shown) [Example I-9, (E)-4-methyl-6-oxa-3-aza-2(3,6)-imidazo[1,2-b]pyridazina-1(2,4)-pyridina-5(1,2)-benzenacyclooctaphane] | 11 nM | 297 nM | 308 nM | 
CC1Nc2ccc3ncc(n3n2)-c2cc(ncn2)COc2ccccc21 (stereo not shown) [Example I-10, (E)-6-methyl-4-oxa-7-aza-1(3,6)-imidazo[1,2-b]pyridazina-2(4,6)-pyrimidine-5(1,2)-benzenacycloheptaphane] | 4.6 nM | 378 nM | 378 nM | 
CC1Nc2ccc3ncc(n3n2)-c2cc(ncn2)CCOc2ccccc21 (stereo not shown) [Example I-11, […]] | 2.5 nM | 419 nM | 419 nM | 
C[C@@H]1Nc2ccc3ncc(n3n2)-c2cc(ccn2)COc2ccc(F)cc21 [Example I-15, (S)-(E)-5′-fluoro-6-methyl-4-oxa-7-aza-1(3,6)-imidazo[1,2-b]pyridazina-2(2,4)-pyridina-5(1,2)-benzenacycloheptaphane] |  |  |  | 4.8 nM
C[C@@H]1Nc2ccc3ncc(n3n2)-c2cc(ccn2)COc2c(F)cc(F)cc21 [Example I-17, (S)-(E)-5′,5′-difluoro-6-methyl-4-oxa-7-aza-1(3,6)-imidazo[1,2-b]pyridazine-2(2,4)-pyridina-5(1,2)-benzenacycloheptaphane] |  |  |  | 5.2 nM
C[C@@H]1Nc2ccc3ncc(n3n2)-c2cc(ccn2)COc2ccccc21 [Example I-19, (S)-(E)-6-methyl-4-oxa-7-aza-1(3,6)-imidazo[1,2-b]pyridazine-2(2,4)-pyridina-5(1,2)-benzenacycloheptaphane] |  |  |  | 5.7 nM
C[C@@H]1Nc2ccc3ncc(n3n2)-c2cc(ccn2)COc2ncccc21 [Example I-21, (6S,E)-6-methyl-4-oxa-7-aza-1(3,6)-imidazo[1,2-b]pyridazina-2(2,4), 5(2,3)-dipyridinacycloheptaphane] |  |  |  | 6.1 nM
C[C@@H]1Nc2ccc3ncc(n3n2)-c2cncc(c2)COc2ccc(F)cc21 [Example I-23, (S)-(E)-5^4-fluoro-6-methyl-4-oxa-7-aza-1(3,6)-imidazo[1,2-b]pyridazina-2(3,5)-pyridina-5(1,2)-benzenacycloheptaphane] |  |  |  | 4.8 nM
C[C@@H]1Nc2ccc3ncc(n3n2)-c2cc(ncn2)COc2ccccc21 [Example I-27, (6S,E)-6-methyl-4-oxa-7-aza-1(3,6)-imidazo[1,2-b]pyridazina-2(4,6)-pyrimidina-5(1,2)-benzenacycloheptaphane] |  |  |  | 3.7 nM
C[C@@H]1Nc2ccc3ncc(n3n2)-c2cc(ccn2)CCOc2ccccc21 [Example I-29, (4S,E)-4-methyl-6-oxa-3-aza-2(3,6)-imidazo [1,2-b]pyridazina-1(2,4)-pyridina-5(1,2)-benzenacyclooctaphane] |  |  |  | 4.9 nM
C[C@@H]1Nc2ccc3ncc(n3n2)-c2cc(ccn2)OCc2ccc(F)cc21 [Example I-31, (S)-(E)-5^4-fluoro-6-methyl-3-oxa-7-aza-1(3,6)-imidazo[1,2-b]pyridazina-2(2,4)-pyridina-5(1,2)-benzenacycloheptaphane] |  |  |  | 5.7 nM
C[C@@H]1Cc2ccnc(c2)-c2cnc3ccc(nn23)N2C[C@@H](F)C[C@@H]2c2cc(F)ccc2O1 [Example I-39, (3^2R,3^4S,6R,E)-3^4,4^5-difluoro-6-methyl-5-oxa-2(3,6)-imidazo[1,2-b]pyridazina-1(2,4)-pyridina-3(1,2)-pyrrolidina-4(1,2)-benzenacycloheptaphane] | 0.01 nM | 0.1 nM | 0.3 nM | 
C[C@@H]1Cc2ccnc(c2)-c2cnc3ccc(nn23)N2C[C@@H](F)C[C@@H]2c2cc(F)cnc2O1 [Example I-40, (3^2R,3^4S,6R,E)-3^4,4^5-difluoro-6-methyl-5-oxa-2(3,6)-imidazo[1,2-b]pyridazina-1(2,4),4(3,2)-dipyridina-3(1,2)-pyrrolidinacycloheptaphane] | 0.01 nM | 0.1 nM | 0.1 nM | 
Fc1ccc2c(c1)[C@H]1C[C@H](F)CN1c1ccc3ncc(n3n1)-c1cc(ccn1)CO2 [Example I-50, (14bR,16S,E)-13,16-difluoro-14b,15,16,17-tetrahydro-9H-1,19-etheno-4,8-(metheno)benzo[b]imidazo[1,5-h]pyrrolo[2,1-d][1]oxa[5,7,8,11]tetraazacyclopentadecine] | 0.1 nM | 0.2 nM | 0.3 nM | 
Fc1ccc2c(c1)[C@H]1C[C@H](F)CN1c1ccc3ncc(n3n1)-c1cc(ccn1)CCO2 [Example I-54, (3^2R,3^4S,E)-3^4,4^5-difluoro-5-oxa-2(3,6)-imidazo[1,2-b]pyridazina-1(2,4)-pyridina-3(1,2)-pyrrolidina-4(1,2)-benzenacycloheptaphane] | 0.18 nM | 0.4 nM | 2.1 nM | 
Fc1cnc2c(c1)[C@H]1C[C@H](F)CN1c1ccc3ncc(n3n1)-c1cc(ccn1)CCO2 [Example I-56, (3^2R,3^4S,E)-3^4,4^5-difluoro-5-oxa-2(3,6)-imidazo[1,2-b]pyridazina-1(2,4), 4(3,2)-dipyridina-3(1,2)-pyrrolidinacycloheptaphane] | 0.2 nM | 0.9 nM | 9.4 nM | 
Fc1ccc2c(c1)[C@H]1C[C@H](F)CN1c1ccc3ncc(n3n1)-c1cc(ncn1)CO2 [Example I-58, (14bR,16S,E)-13,16-difluoro-14b,15,16,17-tetrahydro-9H-1,19-etheno-4,8-(metheno)benzo[n]imidazo[5,1-h]pyrrolo[1,2-l][1]oxa[4,6,9,10,12]pentaazacyclopentadecine] | 0.14 nM | 2.1 nM | 12.7 nM | 
Fc1cnc2c(c1)[C@H]1C[C@H](F)CN1c1ccc3ncc(n3n1)-c1cc(ncn1)CO2 [Example I-60, (14bR,16S,E)-13,16-difluoro-14b,15,16,17-tetrahydro-9H-1,19-etheno-4,8-(metheno)imidazo[5,1-h]pyrido[3,2-n]pyrrolo[1,2-l][1]oxa[4,6,9,10,12]pentaazacyclopentadecine] | 0.13 nM | 2.5 nM | 22.5 nM | 
(R)-(E)-4-methyl-6-oxa-3-aza-2(3,6)-imidazo[1,2-b]pyridazina-1(4,6)-pyrimidina-5(1,2)-benzenacyclooctaphane [Example I-33] |  |  |  | 5.9 nM
(S)-(E)-5^5-fluoro-6-methyl-3-oxa-7-aza-1(3,6)-imidazo[1,2-b]pyridazina-2(2,4), 5(2,3)-dipyridinacycloheptaphane [Example I-25] |  |  |  | 5.1 nM
